The text below walks through data of PMC554093, “L-histidine inhibits production of lysophosphatidic acid by the tumor-associated cytokine, autotaxin” (Lipids in Health and Disease, 2005).

Holding throughout (type): biochemical
Assay [1] has as its target T1, autotaxin (ATX, NPP-2, lysophospholipase D) (Homo sapiens, UniProt Q13822). The assay is described as follows: LPLD activity (choline release from LPC), […] compound, about […] reduction. The settings on record: read-out: % reduction at 15 mM. More on the design: gene ENPP2; recombinant human ATX (vATX).
The target in assay [2] is T1, autotaxin (ATX, NPP-2, lysophospholipase D). The description is as above. Set-up: gene ENPP2; recombinant human ATX (vATX). The settings on record: read-out: % reduction at 15 mM. The source holds these as a separate data set.
For assay [3] the target is unchanged. The assay is described as follows: LPLD activity (choline release from LPC) and PDE activity (pNp-TMP) with purified recombinant ATX. More on the design: gene ENPP2; recombinant human ATX (vATX), cloned from an MDA-MB-435 cell library.
Assay [4] shares this target. The assay is described as follows: LPLD activity (choline release from LPC), […] compound, […] reduction. The settings on record: read-out: % reduction at 15 mM. Set-up: gene ENPP2; recombinant human ATX (vATX).
The target is the same in assay [5]. As to the kind of experiment: LPLD enzyme kinetics (choline release), Km. More on the design: gene ENPP2; recombinant human ATX (vATX).
Assay [6] has the same target. As to the kind of experiment: LPLD activity (choline release from LPC), […] compound, […] reduction; methyl on the alpha nitrogen. More on the design: gene ENPP2; recombinant human ATX (vATX). The settings on record: read-out: % reduction at 15 mM.

`NC(=O)[C@@H](N)Cc1c[nH]cn1` [histidinamide]: in assay [1], the inhibition at 15000 µM is about 20%. With `N[C@H](Cc1c[nH]cn1)C(=O)O` [D-histidine], the inhibition at 15000 µM in assay [2] is about 75%.

Broadly, the IC50 is the concentration at which inhibition is half-maximal. Regarding `N[C@@H](Cc1c[nH]cn1)C(=O)O` [L-histidine], the IC50 in assay [3] came out at 4 ± 1.1 mM. With `COC(=O)[C@@H](N)Cc1c[nH]cn1` [histidine methyl ester], the inhibition at 15000 µM in assay [4] was 65%. As usually defined, the Km is the substrate concentration at which the rate is half of its maximum. With LPC (18:1), in assay [5], the Km was 490 ± 50 µM.

As to `CN[C@@H](Cc1c[nH]cn1)C(=O)O` [N-methyl histidine], in assay [6], the inhibition at 15000 µM amounted to 30%.
